Experiments:
[1] = 101.33 kPa, Liquid; for viscosity: Concentric cylinders viscometry; for electrical conductivity: Metler Toledo SevenEasy conductivity meter; for mass density: Vibrating tube method
[2] = molar heat capacity at constant pressure; conditions: 101.33 kPa, Liquid, Small sample (50 mg) DSC

CCCCCCn1cc[n+](C)c1.F[P-](F)(F)(F)(F)F [1-hexyl-3-methylimidazolium hexafluorophosphate]
Conditions | electrical conductivity [S/m] | mass density [kg/m3] | molar heat capacity at constant pressure [J/K/mol] | viscosity [mPa·s]
[1], 293.15 K | 0.0388 | 1296.7 | – | 693.1
[1], 298.15 K | 0.0543 | 1292.9 | – | 485.8
[1], 303.15 K | 0.074 | 1288.7 | – | 350.9
[1], 308.15 K | 0.0992 | 1285.1 | – | 255.4
[1], 313.15 K | 0.1301 | 1281 | – | 189.4
[1], 318.15 K | 0.168 | 1277 | – | 147.5
[1], 323.15 K | 0.212 | 1273 | – | 114.7
[1], 328.15 K | 0.264 | 1269.1 | – | 91.1
[1], 333.15 K | 0.322 | 1265.2 | – | 73.5
[1], 338.15 K | 0.391 | 1261.2 | – | 60
[1], 343.15 K | 0.465 | 1257 | – | 49.6
[2], 293.15 K | – | – | 421.53 | –
[2], 294.15 K | – | – | 422.15 | –
[2], 295.15 K | – | – | 422.78 | –
[2], 296.15 K | – | – | 423.09 | –
[2], 297.15 K | – | – | 423.4 | –
[2], 298.15 K | – | – | 424.02 | –
[2], 299.15 K | – | – | 424.34 | –
[2], 300.15 K | – | – | 424.96 | –
[2], 301.15 K | – | – | 425.27 | –
[2], 302.15 K | – | – | 426.21 | –
[2], 303.15 K | – | – | 426.83 | –
[2], 304.15 K | – | – | 427.15 | –
[2], 305.15 K | – | – | 427.46 | –
[2], 306.15 K | – | – | 428.08 | –
[2], 307.15 K | – | – | 428.71 | –
[2], 308.15 K | – | – | 429.33 | –
[2], 309.15 K | – | – | 429.96 | –
[2], 310.15 K | – | – | 430.58 | –
[2], 311.15 K | – | – | 431.21 | –
[2], 312.15 K | – | – | 431.52 | –
[2], 313.15 K | – | – | 432.14 | –
[2], 314.15 K | – | – | 432.77 | –
[2], 315.15 K | – | – | 433.39 | –
[2], 316.15 K | – | – | 434.02 | –
[2], 317.15 K | – | – | 434.64 | –
[2], 318.15 K | – | – | 434.95 | –
[2], 319.15 K | – | – | 435.58 | –
[2], 320.15 K | – | – | 436.2 | –
[2], 321.15 K | – | – | 436.83 | –
[2], 322.15 K | – | – | 437.45 | –
[2], 323.15 K | – | – | 437.76 | –
[2], 324.15 K | – | – | 438.7 | –
[2], 325.15 K | – | – | 439.32 | –
[2], 326.15 K | – | – | 439.95 | –
[2], 327.15 K | – | – | 440.89 | –
[2], 328.15 K | – | – | 441.82 | –
[2], 329.15 K | – | – | 442.45 | –
[2], 330.15 K | – | – | 443.07 | –
[2], 331.15 K | – | – | 444.01 | –
[2], 332.15 K | – | – | 444.63 | –
[2], 333.15 K | – | – | 445.26 | –
[2], 334.15 K | – | – | 445.88 | –
[2], 335.15 K | – | – | 446.51 | –
[2], 336.15 K | – | – | 447.44 | –
[2], 337.15 K | – | – | 448.07 | –
[2], 338.15 K | – | – | 448.69 | –
[2], 339.15 K | – | – | 449.32 | –
[2], 340.15 K | – | – | 450.25 | –
[2], 341.15 K | – | – | 450.56 | –
[2], 342.15 K | – | – | 451.5 | –
[2], 343.15 K | – | – | 452.44 | –

CCCCCC[n+]1ccn(C)c1.FC(F)(F)C(F)(F)[P-](F)(F)(F)(C(F)(F)C(F)(F)F)C(F)(F)C(F)(F)F
Conditions | electrical conductivity [S/m] | mass density [kg/m3] | molar heat capacity at constant pressure [J/K/mol] | viscosity [mPa·s]
[1], 293.15 K | 0.1303 | 1555.6 | – | 114.3
[1], 298.15 K | 0.167 | 1550.1 | – | 88.2
[1], 303.15 K | 0.209 | 1544.7 | – | 68.4
[1], 308.15 K | 0.258 | 1539.3 | – | 54.1
[1], 313.15 K | 0.313 | 1533.9 | – | 43.2
[1], 318.15 K | 0.374 | 1528.7 | – | 35.1
[1], 323.15 K | 0.44 | 1523.5 | – | 28.9
[1], 328.15 K | 0.514 | 1518 | – | 24.4
[1], 333.15 K | 0.593 | 1512.6 | – | 20.3
[1], 338.15 K | 0.676 | 1507.2 | – | 17.3
[1], 343.15 K | 0.769 | 1501.8 | – | 14.8
[2], 293.15 K | – | – | 725.56 | –
[2], 294.15 K | – | – | 726.17 | –
[2], 295.15 K | – | – | 726.78 | –
[2], 296.15 K | – | – | 728.01 | –
[2], 297.15 K | – | – | 728.62 | –
[2], 298.15 K | – | – | 729.85 | –
[2], 299.15 K | – | – | 730.46 | –
[2], 300.15 K | – | – | 731.68 | –
[2], 301.15 K | – | – | 732.29 | –
[2], 302.15 K | – | – | 733.52 | –
[2], 303.15 K | – | – | 734.13 | –
[2], 304.15 K | – | – | 735.36 | –
[2], 305.15 K | – | – | 735.97 | –
[2], 306.15 K | – | – | 737.19 | –
[2], 307.15 K | – | – | 737.81 | –
[2], 308.15 K | – | – | 738.42 | –
[2], 309.15 K | – | – | 739.64 | –
[2], 310.15 K | – | – | 740.25 | –
[2], 311.15 K | – | – | 741.48 | –
[2], 312.15 K | – | – | 742.09 | –
[2], 313.15 K | – | – | 743.32 | –
[2], 314.15 K | – | – | 743.93 | –
[2], 315.15 K | – | – | 745.15 | –
[2], 316.15 K | – | – | 745.77 | –
[2], 317.15 K | – | – | 746.99 | –
[2], 318.15 K | – | – | 747.6 | –
[2], 319.15 K | – | – | 748.83 | –
[2], 320.15 K | – | – | 749.44 | –
[2], 321.15 K | – | – | 750.05 | –
[2], 322.15 K | – | – | 751.28 | –
[2], 323.15 K | – | – | 751.89 | –
[2], 324.15 K | – | – | 752.5 | –
[2], 325.15 K | – | – | 753.11 | –
[2], 326.15 K | – | – | 754.34 | –
[2], 327.15 K | – | – | 754.95 | –
[2], 328.15 K | – | – | 756.17 | –
[2], 329.15 K | – | – | 756.79 | –
[2], 330.15 K | – | – | 758.01 | –
[2], 331.15 K | – | – | 758.62 | –
[2], 332.15 K | – | – | 759.24 | –
[2], 333.15 K | – | – | 759.85 | –
[2], 334.15 K | – | – | 760.46 | –
[2], 335.15 K | – | – | 761.07 | –
[2], 336.15 K | – | – | 762.3 | –
[2], 337.15 K | – | – | 762.91 | –
[2], 338.15 K | – | – | 763.52 | –
[2], 339.15 K | – | – | 764.75 | –
[2], 340.15 K | – | – | 765.36 | –
[2], 341.15 K | – | – | 765.97 | –
[2], 342.15 K | – | – | 767.2 | –
[2], 343.15 K | – | – | 767.81 | –

— the NIST ThermoML archive (doi:10.1021/je200073x)
